According to US10294202B2, “Pyrrolidinones as herbicides” (FMC Corporation, priority 2013, dated 2019):
Like-named read-outs stand apart in the source and are kept apart here.

What was measured:
barnyardgrass [1] = experiment: Test A pre-/postemergence herbicide test; type: in vivo, Echinochloa crus-galli; conditions: for Barnyardgrass plant response rating: Preemergence, visual rating on 0 to 100 scale (0 no effect, 100 complete control)
Procedure, shortened: (§1)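 Visual 0–100 ratings (100 = complete control) made about 10 days after treatment, greenhouse-held plants compared with untreated controls. Treatments: postemergence sprays on one- to two-leaf plants (2–10 cm tall) and preemergence directed soil sprays after planting in loam–sand, chemicals formulated in non-phytotoxic solvent containing surfactant.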

crabgrass, large = experiment: Test A pre-/postemergence herbicide test; type: in vivo, Digitaria sanguinalis; conditions: for Crabgrass, Large plant response rating: Preemergence, visual rating on 0 to 100 scale (0 no effect, 100 complete control)
Procedure, shortened: as §1

giant foxtail = experiment: Test A pre-/postemergence herbicide test; type: in vivo, Setaria faberii; conditions: for Foxtail, Giant plant response rating: Preemergence, visual rating on 0 to 100 scale (0 no effect, 100 complete control)
Procedure, shortened: as §1

morningglory = experiment: Test A pre-/postemergence herbicide test; type: in vivo, Ipomoea spp.; conditions: for Morningglory plant response rating: Preemergence, visual rating on 0 to 100 scale (0 no effect, 100 complete control)
Procedure, shortened: as §1

pigweed = experiment: Test A pre-/postemergence herbicide test; type: in vivo, Amaranthus retroflexus; conditions: for Pigweed plant response rating: Preemergence, visual rating on 0 to 100 scale (0 no effect, 100 complete control)
Procedure, shortened: as §1

velvetleaf = experiment: Test A pre-/postemergence herbicide test; type: in vivo, Abutilon theophrasti; conditions: for Velvetleaf plant response rating: Preemergence, visual rating on 0 to 100 scale (0 no effect, 100 complete control)
Procedure, shortened: as §1

wheat = experiment: Test A pre-/postemergence herbicide test; type: in vivo, Triticum aestivum; conditions: for Wheat plant response rating: Preemergence, visual rating on 0 to 100 scale (0 no effect, 100 complete control)
Procedure, shortened: as §1

corn = experiment: Test A pre-/postemergence herbicide test; type: in vivo, Zea mays; conditions: for Corn plant response rating: Preemergence, visual rating on 0 to 100 scale (0 no effect, 100 complete control)
Procedure, shortened: as §1

rice = experiment: Test B flooded paddy test; type: in vivo, Oryza sativa; conditions: 250 g ai/ha, Flood; scale of 0 to 100 where 0 is no effect and 100 is complete control
Procedure, shortened: (§2)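 Visual ratings from 0, meaning no effect, up to 100, meaning complete control, were made by comparison with untreated controls 13 to 15 days after treatment. Test compounds went straight into floodwater standing 3 cm over the soil of pots holding 2-leaf seedlings.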

sedge, umbrella = experiment: Test B flooded paddy test; type: in vivo, Cyperus difformis; conditions: 250 g ai/ha, Flood; scale of 0 to 100 where 0 is no effect and 100 is complete control
Procedure, shortened: as §2

ducksalad = experiment: Test B flooded paddy test; type: in vivo, Heteranthera limosa; conditions: 250 g ai/ha, Flood; scale of 0 to 100 where 0 is no effect and 100 is complete control
Procedure, shortened: as §2

barnyardgrass [2] = experiment: Test B flooded paddy test; type: in vivo, Echinochloa crus-galli; conditions: 250 g ai/ha, Flood; scale of 0 to 100 where 0 is no effect and 100 is complete control
Procedure, shortened: as §2

[3] = Postemergence, 125 g ai/ha, 0 to 100 scale, 0 no effect, 100 complete control
[4] = Postemergence, 500 g ai/ha, 0 to 100 scale (0 no effect, 100 complete control)
[5] = preemergence, 500 g ai/ha, 0 to 100 scale
[6] = Postemergence, 1000 g ai/ha, 0 to 100 scale (0 no effect, 100 complete control)
[7] = preemergence, 1000 g ai/ha, 0 to 100 scale

O=C1NCC(c2ccc(F)c(Cl)c2)C1C(=O)Nc1ccccc1C(F)(F)F (centres unmarked) [Compound 74, 4-(3-chloro-4-fluorophenyl)-2-oxo-N-[2-(trifluoromethyl)phenyl]-3-pyrrolidinecarboxamide]
90%: pest or weed control at 500 g/ha (barnyardgrass [1]; Echinochloa crus-galli, pre-emergence, 240 h, preemergence, 500 g ai/ha, 0 to 100 scale (0 no effect, 100 complete control), read-out: Plant response rating, Barnyardgrass) | pest or weed control at 500 g/ha (crabgrass, large; Digitaria sanguinalis, post-emergence, 240 h, Postemergence, 500 g ai/ha, 0 to 100 scale (0 no effect, 100 complete control), read-out: Plant response rating, Crabgrass, Large) | pest or weed control at 500 g/ha (crabgrass, large; Digitaria sanguinalis, pre-emergence, 240 h, preemergence, 500 g ai/ha, 0 to 100 scale, read-out: Plant response rating, Crabgrass, Large) | pest or weed control at 500 g/ha (giant foxtail; Setaria faberi, post-emergence, 240 h, Postemergence, 500 g ai/ha, 0 to 100 scale (0 no effect, 100 complete control), read-out: Plant response rating, Foxtail, Giant) | pest or weed control at 500 g/ha (giant foxtail; Setaria faberi, pre-emergence, 240 h, preemergence, 500 g ai/ha, 0 to 100 scale, read-out: Plant response rating, Foxtail, Giant)
80%: pest or weed control at 500 g/ha (barnyardgrass [1]; Echinochloa crus-galli, post-emergence, 240 h, Postemergence, 500 g ai/ha, 0 to 100 scale (0 no effect, 100 complete control), read-out: Plant response rating, Barnyardgrass) | pest or weed control at 125 g/ha (crabgrass, large; Digitaria sanguinalis, post-emergence, 240 h, Postemergence, 125 g ai/ha, 0 to 100 scale, 0 no effect, 100 complete control, read-out: Plant response rating, Crabgrass, Large) | pest or weed control at 125 g/ha (giant foxtail; Setaria faberi, post-emergence, 240 h, Postemergence, 125 g ai/ha, 0 to 100 scale, 0 no effect, 100 complete control, read-out: Plant response rating, Foxtail, Giant)
50%: pest or weed control at 500 g/ha (pigweed; Amaranthus retroflexus, pre-emergence, 240 h, preemergence, 500 g ai/ha, 0 to 100 scale, read-out: Plant response rating, Pigweed) | pest or weed control at 500 g/ha (velvetleaf; Abutilon theophrasti, post-emergence, 240 h, Postemergence, 500 g ai/ha, 0 to 100 scale (0 no effect, 100 complete control), read-out: Plant response rating, Velvetleaf) | Corn plant response rating (crop injury, 0 = no effect, 100 = complete kill) at 500 g/ha (corn; Zea mays, post-emergence, 240 h, Postemergence, 500 g ai/ha, 0 to 100 scale (0 no effect, 100 complete control))
0: Morningglory plant response rating (morningglory; 125 g ai/ha) | Pigweed plant response rating (pigweed; 125 g ai/ha) | Velvetleaf plant response rating (velvetleaf; 125 g ai/ha) | Wheat plant response rating (wheat; 125 g ai/ha) | Corn plant response rating (corn; 125 g ai/ha) | Plant response rating, Rice (rice) | Plant response rating, Sedge, Umbrella (sedge, umbrella) | Plant response rating, Barnyardgrass (barnyardgrass [2])
0%: pest or weed control at 125 g/ha (morningglory; Ipomoea, post-emergence, 240 h, Postemergence, 125 g ai/ha, 0 to 100 scale, 0 no effect, 100 complete control, read-out: Plant response rating, Morningglory) | pest or weed control at 500 g/ha (morningglory; Ipomoea, post-emergence, 240 h, Postemergence, 500 g ai/ha, 0 to 100 scale (0 no effect, 100 complete control), read-out: Plant response rating, Morningglory) | pest or weed control at 500 g/ha (morningglory; Ipomoea, pre-emergence, 240 h, preemergence, 500 g ai/ha, 0 to 100 scale, read-out: Plant response rating, Morningglory) | pest or weed control at 125 g/ha (pigweed; Amaranthus retroflexus, post-emergence, 240 h, Postemergence, 125 g ai/ha, 0 to 100 scale, 0 no effect, 100 complete control, read-out: Plant response rating, Pigweed) | pest or weed control at 500 g/ha (pigweed; Amaranthus retroflexus, post-emergence, 240 h, Postemergence, 500 g ai/ha, 0 to 100 scale (0 no effect, 100 complete control), read-out: Plant response rating, Pigweed) | pest or weed control at 500 g/ha (velvetleaf; Abutilon theophrasti, pre-emergence, 240 h, preemergence, 500 g ai/ha, 0 to 100 scale, read-out: Plant response rating, Velvetleaf) | plant injury at 125 g/ha (wheat; Triticum aestivum, post-emergence, 240 h, Postemergence, 125 g ai/ha, 0 to 100 scale, 0 no effect, 100 complete control, read-out: Plant response rating, Wheat) | plant injury at 500 g/ha (wheat; Triticum aestivum, pre-emergence, 240 h, preemergence, 500 g ai/ha, 0 to 100 scale, read-out: Plant response rating, Wheat) | Corn plant response rating (crop injury, 0 = no effect, 100 = complete kill) at 125 g/ha (corn; Zea mays, post-emergence, 240 h, Postemergence, 125 g ai/ha, 0 to 100 scale, 0 no effect, 100 complete control) | Corn plant response rating (crop injury, 0 = no effect, 100 = complete kill) at 500 g/ha (corn; Zea mays, pre-emergence, 240 h, preemergence, 500 g ai/ha, 0 to 100 scale)
90: Crabgrass, Large plant response rating (crabgrass, large; 125 g ai/ha) | Foxtail, Giant plant response rating (giant foxtail; 125 g ai/ha) | Plant response rating, Ducksalad (ducksalad)
60: Barnyardgrass plant response rating (barnyardgrass [1]; 125 g ai/ha)
30%: pest or weed control at 125 g/ha (velvetleaf; Abutilon theophrasti, post-emergence, 240 h, Postemergence, 125 g ai/ha, 0 to 100 scale, 0 no effect, 100 complete control, read-out: Plant response rating, Velvetleaf)
60%: pest or weed control at 125 g/ha (barnyardgrass [1]; Echinochloa crus-galli, post-emergence, 240 h, Postemergence, 125 g ai/ha, 0 to 100 scale, 0 no effect, 100 complete control, read-out: Plant response rating, Barnyardgrass) | plant injury at 500 g/ha (wheat; Triticum aestivum, post-emergence, 240 h, Postemergence, 500 g ai/ha, 0 to 100 scale (0 no effect, 100 complete control), read-out: Plant response rating, Wheat)

NC1=NCC(c2ccc(F)c(F)c2)C1C(=O)Nc1ccccc1F (centres unmarked) [Compound 95, 2-amino-4-(3,4-difluorophenyl)-N-(2-fluorophenyl)dihydro-3H-pyrrole-3-carboxamide]
0: Plant response rating, Morningglory (morningglory; [3]) | Plant response rating, Morningglory (morningglory; [4]) | Morningglory plant response rating (morningglory; 125 g ai/ha) | Plant response rating, Morningglory (morningglory; [5]) | Plant response rating, Pigweed (pigweed; [3]) | Plant response rating, Pigweed (pigweed; [4]) | Pigweed plant response rating (pigweed; 125 g ai/ha) | Plant response rating, Pigweed (pigweed; [5]) | Plant response rating, Velvetleaf (velvetleaf; [3]) | Plant response rating, Velvetleaf (velvetleaf; [4]) | Velvetleaf plant response rating (velvetleaf; 125 g ai/ha) | Plant response rating, Velvetleaf (velvetleaf; [5]) | Plant response rating, Wheat (wheat; [3]) | Plant response rating, Wheat (wheat; [4]) | Wheat plant response rating (wheat; 125 g ai/ha) | Plant response rating, Wheat (wheat; [5]) | Plant response rating, Corn (corn; [3]) | Plant response rating, Corn (corn; [4]) | Corn plant response rating (corn; 125 g ai/ha) | Plant response rating, Corn (corn; [5]) | Plant response rating, Rice (rice) | Plant response rating, Sedge, Umbrella (sedge, umbrella) | Plant response rating, Barnyardgrass (barnyardgrass [2])
90: Plant response rating, Barnyardgrass (barnyardgrass [1]; [4]) | Plant response rating, Barnyardgrass (barnyardgrass [1]; preemergence, 500 g ai/ha, 0 to 100 scale (0 no effect, 100 complete control)) | Plant response rating, Crabgrass, Large (crabgrass, large; [4]) | Crabgrass, Large plant response rating (crabgrass, large; 125 g ai/ha) | Plant response rating, Crabgrass, Large (crabgrass, large; [5]) | Plant response rating, Foxtail, Giant (giant foxtail; [5]) | Plant response rating, Ducksalad (ducksalad)
60: Barnyardgrass plant response rating (barnyardgrass [1]; 125 g ai/ha)
80: Plant response rating, Barnyardgrass (barnyardgrass [1]; [3]) | Plant response rating, Crabgrass, Large (crabgrass, large; [3]) | Plant response rating, Foxtail, Giant (giant foxtail; [4]) | Foxtail, Giant plant response rating (giant foxtail; 125 g ai/ha)
70: Plant response rating, Foxtail, Giant (giant foxtail; [3])

CON(C(=O)C1C(=O)NCC1c1ccc(F)c(F)c1)c1ccccc1[N+](=O)[O-] (centres unmarked) [Compound 243]
90: Plant response rating, Crabgrass, Large (crabgrass, large; [7]) | Plant response rating, Foxtail, Giant (giant foxtail; [7])
60: Plant response rating, Barnyardgrass (barnyardgrass [1]; [6])
20: Plant response rating, Foxtail, Giant (giant foxtail; [6])
80: Plant response rating, Barnyardgrass (barnyardgrass [1]; preemergence, 1000 g ai/ha, 0 to 100 scale (0 no effect, 100 complete control))
0: Plant response rating, Crabgrass, Large (crabgrass, large; [6]) | Plant response rating, Morningglory (morningglory; [6]) | Plant response rating, Morningglory (morningglory; [7]) | Plant response rating, Pigweed (pigweed; [6]) | Plant response rating, Pigweed (pigweed; [7]) | Plant response rating, Velvetleaf (velvetleaf; [6]) | Plant response rating, Velvetleaf (velvetleaf; [7]) | Plant response rating, Wheat (wheat; [6]) | Plant response rating, Wheat (wheat; [7]) | Plant response rating, Corn (corn; [6]) | Plant response rating, Corn (corn; [7]) | Plant response rating, Rice (rice) | Plant response rating, Sedge, Umbrella (sedge, umbrella) | Plant response rating, Ducksalad (ducksalad) | Plant response rating, Barnyardgrass (barnyardgrass [2])
